Data set [1] in a line: Competitive stability study (slurry of Forms I-VI, XRPD). The class given is physicochemical. Conditions: 2 days, room temperature. On the procedure:
To evaluate the transformation of Compound 1 phosphate solid forms, competitive slurry experiments were performed as follows: to a saturated solution (1.5 mL) of Compound 1 phosphate Form I in the solvent as listed in Table 14 was added Form I (6 mg), followed by stirring to give a cloudy solution, then 6 mg each of Form II through Form VI were added to the mixture. The slurry was stirred for 2 days at room temperature and analyzed by XRPD.

A further data set has as its system MOLM16 cells. Nature of the data set: Pim cell proliferation assay ([3H]-thymidine), MOLM16. The conditions noted are these: read-out: IC50 Tumor cell proliferation (Ex. B, MOLM16 cells). Format: cell-based. On the procedure: (§1) KM[…] and MOLM16 cells were purchased from DSMZ (Germany) and were maintained according to the recommendations of suppliers. To measure the anti-proliferation activities of test compounds, the cells were plated in their respective culture medium (2×10^3 cells/200 μL/well) into 96-well ultralow binding plates (Corning), with or without test compound(s). After 3 to 4 days, [3H]-thymidine (1 μCi/well) (PerkinElmer) in PBS (10 μL) was then added to the cell culture for an additional 12 hours before the incorporated radioactivity was separated by filtration with water through GF/B filters (Packard Bioscience) and measured by liquid scintillation counting with a TopCount (Packard Bioscience).

Another data set deals with Pim-3 (Homo sapiens, UniProt Q86V86). Nature of the data set: Pim-3 kinase assay. Conditions: 1 mM ATP; read-out: IC50 PIM3 Enzyme (Ex. A). Format: biochemical.
For data set [2], the system named is pBAD in KMS12BM cells. Put plainly: pBAD signaling assay in human whole blood, KMS12BM cells. The class given is cell-based. Conditions: KMS-12-BM, read-out: IC50 pBAD whole blood (Ex. B, KMS12BM cells).
Another data set has as its target T1, Pim-2 (Homo sapiens, UniProt Q9P1W9).
T1 construct: purchased Invitrogen PV3649
Put plainly: Pim-2 kinase assay. The conditions noted are these: 1 mM ATP; read-out: IC50 PIM2 Enzyme (Ex. A). Format: biochemical. The procedure: Pim-2 kinase assay—20 μL reactions are run in white 384 well polystyrene plates dotted with 0.8 μL compound/DMSO in the assay buffer (50 mM Tris, pH 7.5, 0.01% Tween-20, 5 mM MgCl2, 0.01% BSA, 5 mM DTT), containing 0.05 μM Fluorescein-labeled CREBtide peptide substrate (Invitrogen PV3508), 1 mM ATP, and 1 nM enzyme (Invitrogen PV3649) for 2 h at 25° C. Reactions are stopped by addition of 10 μL TR-FRET Dilution Buffer (Invitrogen PV3574) with 30 mM EDTA and 1.5 nM LanthaScreen Tb-CREB pSer133 antibody (Invitrogen PV3566). After 30 min. incubation at room temperature, plates are read on a PHERAstar FS plate reader (BMG Labtech).

The next data set has as its system pBAD in MOLM-16 cell. Put plainly: pBAD signaling assay in human whole blood, MOLM16 cells. The class given is cell-based. Conditions: read-out: IC50 pBAD whole blood (Ex. B, MOLM16 cells).
Another data set deals with T2, Pim-1 (Homo sapiens, UniProt P11309).
T2 construct: purchased Invitrogen PV3503
T2 sequence (P11309 whole entry): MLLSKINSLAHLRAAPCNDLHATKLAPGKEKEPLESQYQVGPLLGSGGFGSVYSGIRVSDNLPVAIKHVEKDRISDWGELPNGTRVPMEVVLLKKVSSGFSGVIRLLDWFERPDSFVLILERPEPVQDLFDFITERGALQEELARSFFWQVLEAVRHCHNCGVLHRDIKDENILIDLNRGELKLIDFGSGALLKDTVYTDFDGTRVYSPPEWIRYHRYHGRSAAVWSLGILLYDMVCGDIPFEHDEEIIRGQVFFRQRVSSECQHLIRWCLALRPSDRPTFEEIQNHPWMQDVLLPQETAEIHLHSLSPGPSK
Nature of the data set: Pim-1 kinase assay. The class given is biochemical. The conditions noted are these: 1 mM ATP; read-out: IC50 PIM1 Enzyme (Ex. A). The procedure: Pim-1 and Pim-3 kinase assays—20 μL reactions can be run in white 384 well polystyrene plates dotted with 0.8 μL compound/DMSO in the assay buffer (50 mM Tris, pH 7.5, 0.01% Tween-20, 5 mM MgCl2, 0.01% BSA, 5 mM DTT), containing 0.05 μM Biotin-labeled BAD peptide substrate (AnaSpec 62269), 1 mM ATP, and 2.5 pM (Pim-1, Invitrogen PV3503) or 1.25 pM (Pim-3, Millipore 14-738) enzyme for 1 h at 25° C. Reactions are stopped by addition of 10 μL STOP Buffer (150 mM Tris, pH=7.5, 150 mM NaCl, 75 mM EDTA, 0.01% Tween-20, 0.3% BSA) supplemented with Phospho-Bad (Ser112) Antibody (Cell Signaling 9291) diluted 666-fold, and Streptavidin donor beads (PerkinElmer 6760002) along with Protein-A acceptor beads (PerkinElmer 6760137) at 15 μg/mL each. Supplementation of the STOP buffer with beads and stopping the reactions are done under reduced light. Prior to the stopping reactions STOP buffer with beads is pre-incubated for 1 h in the dark at room temperature. After stopping the reactions, plates are incubated for 1 h in the dark at room temperature before reading on a PHERAstar FS plate reader (BMG Labtech) under reduced light.

A further data set concerns KMS12BM cells. Put plainly: Pim cell proliferation assay ([3H]-thymidine), KMS12BM. The class given is cell-based. Conditions: Homo sapiens, KMS-12-BM; read-out: IC50 Tumor cell proliferation (Ex. B, KMS12BM cells). The procedure:
as §1

For data set [3], the system named is pBAD in KMS12BM cells. Put plainly: Pim pBAD signaling assay in KMS12BM cells. The class given is cell-based. The conditions noted are these: Homo sapiens, KMS-12-BM, 2.5 hours, read-out: IC50 pBAD KMS12BM cells (Ex. B).
Data set [4] is described as follows: Stability study under phase equilibration conditions (XRPD). Format: physicochemical. Conditions: 2-3 days, all solvents and solvent mixtures tested. On the procedure: Phase equilibration studies were designed to provide information on a predominant crystal form for phase identification. Compound 1 phosphoric acid salt (Form I) was equilibrated in a representative group of solvents at 25±1° C. (chloroform, DMF, 1,4-dioxane, methanol and methanol/20% water, 2-methoxyethanol and 2-methoxyethanol/20% water, MIBK, THF and THF/20% water, acetone, n-BuOH and n-BuOH/20% water, EtOH and EtOH/20% water, isobutyl acetate, 1-propanol and 1-propanol/20% water, isopropanol, water, and MEK) and 50±1° C. (chloroform, DMF, 1,4-dioxane, methanol and methanol/20% water, 2-methoxyethanol and 2-methoxyethanol/20% water, MIBK, THF and THF/20% water, acetone, n-BuOH and n-BuOH/20% water, EtOH and EtOH/20% water, EtOAc, ethyl formate, 1-propanol and 1-propanol/20% water, isopropanol, IPA/MeOH/Water (1.73/0.79/0.08), IPA/water (3/2), water) controlled by IKA® ETS-D5 temperature controller and IKA® RCT basic safety control.
To 3 mL of a solvent or a mixture of solvents (chosen from a list for the respective temperature) was added Compound 1 phosphate (Form I) until a cloudy solution was obtained, then, about 30 mg of Compound 1 phosphate (Form I) was added to the cloudy solution. The mixture was stirred at 25±1° C. or 50±1° C., respectively, for 2-3 days. The solid was filtered and analyzed by XRPD. […]

Data set [5] can be described thus: Stability study of Form I under environmental conditions (XRPD). The class given is physicochemical. An excerpt: Compound 1 phosphoric acid salt Form I was subjected to various different environmental conditions to assess stability.
For the next data set, the target named is PIM kinase. Nature of the data set: Pim enzyme assays (isoform not given). Format: biochemical. Conditions: 1 mM ATP; Pim isoform not stated.

The structures appear in SMILES notation. Where a name gives a salt, the structure may show the parent alone.

Experimental findings from US12043614B2, “Salts of a Pim kinase inhibitor” (Incyte Corporation, priority 2015, dated 2024) are described below.

T1 sequence (Q9P1W9 whole entry): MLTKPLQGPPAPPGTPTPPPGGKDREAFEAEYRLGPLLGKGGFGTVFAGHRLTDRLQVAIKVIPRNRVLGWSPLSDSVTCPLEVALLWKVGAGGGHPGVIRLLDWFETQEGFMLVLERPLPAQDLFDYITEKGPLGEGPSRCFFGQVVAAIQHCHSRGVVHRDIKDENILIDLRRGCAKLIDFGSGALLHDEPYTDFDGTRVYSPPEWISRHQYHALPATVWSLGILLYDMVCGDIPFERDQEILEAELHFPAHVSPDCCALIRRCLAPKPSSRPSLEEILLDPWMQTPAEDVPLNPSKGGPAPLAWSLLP
Description for PIM kinase: Pim-1 and Pim-3 kinase assays—20 μL reactions can be run in white 384 well polystyrene plates dotted with 0.8 μL compound/DMSO in the assay buffer (50 mM Tris, pH 7.5, 0.01% Tween-20, 5 mM MgCl2, 0.01% BSA, 5 mM DTT), containing 0.05 μM Biotin-labeled BAD peptide substrate (AnaSpec 62269), 1 mM ATP, and 2.5 pM (Pim-1, Invitrogen PV3503) or 1.25 pM (Pim-3, Millipore 14-738) enzyme for 1 h at 25° C. Reactions are stopped by addition of 10 μL STOP Buffer (150 mM Tris, pH=7.5, 150 mM NaCl, 75 mM EDTA, 0.01% Tween-20, 0.3% BSA) supplemented with Phospho-Bad (Ser112) Antibody (Cell Signaling 9291) diluted 666-fold, and Streptavidin donor beads (PerkinElmer 6760002) along with Protein-A acceptor beads (PerkinElmer 6760137) at 15 μg/mL each. […] After stopping the reactions, plates are incubated for 1 h in the dark at room temperature before reading on a PHERAstar FS plate reader (BMG Labtech) under reduced light.
Pim-2 kinase assay—20 μL reactions are run in white 384 well polystyrene plates dotted with 0.8 μL compound/DMSO in the assay buffer (50 mM Tris, pH 7.5, 0.01% Tween-20, 5 mM MgCl2, 0.01% BSA, 5 mM DTT), containing 0.05 μM Fluorescein-labeled CREBtide peptide substrate (Invitrogen PV3508), 1 mM ATP, and 1 nM enzyme (Invitrogen PV3649) for 2 h at 25° C. […] After 30 min. incubation at room temperature, plates are read on a PHERAstar FS plate reader (BMG Labtech).

For the compound `C[C@H]1CN(c2c(NC(=O)c3ccc(F)c(-c4c(F)cccc4F)n3)cnc3c2CC[C@H]3O)C[C@@H](N)[C@@H]1O` [Compound 1 H3PO4 salt, N-{(7R)-4-[(3R,4R,5S)-3-amino-4-hydroxy-5-methylpiperidin-1-yl]-7-hydroxy-6,7-dihydro-5H-cyclopenta[b]pyridin-3-yl}-6-(2,6-difluorophenyl)-5-fluoropyridine-2-carboxamide phosphoric acid salt], the Solid state form entry in data set [1] (IPA/MeOH/water/DMSO (56.6/28.3/3.0/12.1)) and in data set [1] (IPA/MeOH/water/DMSO (61.8/28.2/2.9/7.1)) was “Form I” in each case.
On to `C[C@H]1CN(c2c(NC(=O)c3ccc(F)c(-c4c(F)cccc4F)n3)cnc3c2CC[C@H]3O)C[C@@H](N)[C@@H]1O` [Compound 1 di-HCl salt, N-{(7R)-4-[(3R,4R,5S)-3-amino-4-hydroxy-5-methylpiperidin-1-yl]-7-hydroxy-6,7-dihydro-5H-cyclopenta[b]pyridin-3-yl}-6-(2,6-difluorophenyl)-5-fluoropyridine-2-carboxamide dihydrochloride], for which the IC50 was under 35 nM with MOLM16 cells; under 35 nM at Pim-3; under 200 nM in the data set on pBAD in KMS12BM cells [2]; under 35 nM on Pim-2; under 100 nM with pBAD in MOLM-16 cell; under 35 nM on Pim-1. In addition, the results for the IC50 in the data set with KMS12BM cells and in the data set with pBAD in KMS12BM cells [3] were under 100 nM and under 35 nM, respectively.
For `C[C@H]1CN(c2c(NC(=O)c3ccc(F)c(-c4c(F)cccc4F)n3)cnc3c2CC[C@H]3O)C[C@@H](N)[C@@H]1O` [Compound 1 phosphoric acid salt Form I, N-{(7R)-4-[(3R,4R,5S)-3-amino-4-hydroxy-5-methylpiperidin-1-yl]-7-hydroxy-6,7-dihydro-5H-cyclopenta[b]pyridin-3-yl}-6-(2,6-difluorophenyl)-5-fluoropyridine-2-carboxamide phosphoric acid salt], the “Solid form after phase equilibration (XRPD)” value in [4] (25±1° C.) and in data set [4] (50±1° C.) was “Form I” in each case. Moreover, the “Crystalline Form (XRPD)” value is on record as “Form I” in data set [5] (40° C./75% RH for 1 week); “Form I” in data set [5] (50° C. vacuum dry for 1 day); “Form I” in data set [5] (100° C. vacuum dry for 1 day); “Form I” in data set [5] (210° C. vacuum dry followed by 40° C./75% RH for 4 weeks); “Not Form I” in data set [5] (210° C. vacuum dry for 20 min); “Form I” in data set [5] (Suspension in 0.5% methyl cellulose in water).
On PIM kinase, `C[C@H]1CN(c2c(NC(=O)c3ccc(F)c(-c4c(F)cccc4F)n3)cnc3c2CC[C@H]3O)C[C@@H](N)[C@@H]1O` [Compound 1, N-{(7R)-4-[(3R,4R,5S)-3-amino-4-hydroxy-5-methylpiperidin-1-yl]-7-hydroxy-6,7-dihydro-5H-cyclopenta[b]pyridin-3-yl}-6-(2,6-difluorophenyl)-5-fluoropyridine-2-carboxamide] showed an IC50 of under 100 nM.
